Experimental data taken from US7488759B2, “Malic acid addition salts of terbinafine” (Novartis AG, priority 2001, dated 2009).
Structures can show the parent of a compound that is named as a salt. Where two headings read alike, the source gives them in different places.

How the values were obtained:
[1] = solubility in water and organic solvents; type: physicochemical; conditions: for solubility: 25 °C
Text: They thus form crystals more readily than the hydrochloride or the free base. […] Polymorphs have different dissolution rates, milling behaviour and stability, e.g. in galenical forms where the pharmaceutically active compound is in solid form, such as tablets or suspensions, and they influence bioavailability. The surprising presence of polymorphism is therefore advantageous in terms of improved processability, such as with polymorph particularly stable thermodynamically, in formulations with compound in solid form, e.g. tablets or suspensions, or with polymorph having a particularly high dissolution rate or solubility, in formulations with dissolved compound, e.g. nail lacquers. The compounds of the invention are therefore better processable for e.g. large scale tablet formulation; they also have favourable penetration/permeation properties and can thus readily be formulated into topical forms, such as nail lacquers. […] Further, they are non-hygroscopic, thus providing stable formulations while minimizing the risk of intrinsic chemical breakdown.

[2] = in vitro nail penetration/permeation assay (modified Franz cell); type: in vitro ADME, human; conditions: 72 hours, 1% solution
Procedure: Human cadaveric toe nails are used in a Franz cell (FIG. 1) modified to accept cadaveric human toenails by having a pair of flexible rings made of a silicone elastomer (PDMS) having good sealant properties to adequately mount hard nails, using liquid scintillation counting (LSC) (picogram limit of detection) to measure the increase in radioactivity in the acceptor compartment. Each measurement is effected in triplicate. 90 randomly selected nails are exposed for 72 hours to a solution of 100 μl of ^14C-labelled terbinafine hydrochloride or terbinafine L-(−)-hydrogen malate (form A) solution [25 μBq/ml; 1% active product; 5% 1,2-propylene glycol; 2% Cetomacrogol-1000® (polyoxyethylene-glycol-1000-monoacetylether); 25% ethanol 94%; 67% distilled water] (w/w). Each area of the nail exposed to the formulation has a 9 mm diameter (about 64 mm^2). Exposure is effected under occlusive (chamber closed to air) and non-occlusive (chamber open to air) conditions.
The radiolabelled product is detectable in the buffer-filled receptor chamber from about 8 hours of incubation. Its concentration in the receptor chamber as measured by LSC increases with incubation time and concentration of applied formulation. A total of 24 penetration chambers are used in parallel. Each formulation is measured in triplicate.

[3] = pharmacokinetic study in Beagle dogs, oral capsules; type: in vivo; conditions: 7 Beagle dogs, oral capsule 62.5 mg base equivalent
Procedure: This appears i.a. from a pharmacokinetic study in animals involving 7 Beagle dogs weighing about 10 kg, aged about 5 years, upon oral administration of capsules prepared by mixing active terbinafine salt substance [hydrochloride or L-(−)-hydrogen malate; 62.5 mg base equivalent per capsule] with lactose in a ratio of 1:1 w/w and filling into appropriate hard gelatine capsules (particle size distribution similar for both salts).

[4] = molecular target: CYP2D6 (Homo sapiens, UniProt P10635); conditions: cited from earlier work
Chain of CYP2D6 (P10635 whole entry): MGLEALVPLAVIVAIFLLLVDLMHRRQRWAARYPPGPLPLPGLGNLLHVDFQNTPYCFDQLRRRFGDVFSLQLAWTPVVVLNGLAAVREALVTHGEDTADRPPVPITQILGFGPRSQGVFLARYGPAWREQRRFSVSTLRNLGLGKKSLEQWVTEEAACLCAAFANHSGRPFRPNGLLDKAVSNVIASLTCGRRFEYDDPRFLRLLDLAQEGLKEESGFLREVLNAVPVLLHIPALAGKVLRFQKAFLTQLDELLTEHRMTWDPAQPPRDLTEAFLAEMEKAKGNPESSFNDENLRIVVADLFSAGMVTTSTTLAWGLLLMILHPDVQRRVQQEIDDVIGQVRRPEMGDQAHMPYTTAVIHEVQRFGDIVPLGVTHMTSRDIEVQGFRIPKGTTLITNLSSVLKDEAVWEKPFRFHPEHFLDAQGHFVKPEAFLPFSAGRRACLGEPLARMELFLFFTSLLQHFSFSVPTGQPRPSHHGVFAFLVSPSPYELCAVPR

[5] = design: AUC increase factor in steady state vs single dose: unit not given beside the values; conditions: cited from earlier work
[6] = ethanol, organic solvent or mixture, read-out: solubility in ethanol
[7] = Beagle, dog, plasma, po, 62.5 mg
[8] = human subjects, single 250 mg terbinafine dose
[9] = steady state after several days dosing

## CN(C/C=C/C#CC(C)(C)C)Cc1cccc2ccccc12 (racemic) [Example 5, Terbinafine DL-(±)-hydrogen malate]
[1]; [6]
  solubility: > 50 mg/mL
[1]; ethyl acetate, organic solvent or mixture, read-out: solubility in ethyl acetate
  solubility: ~17 mg/mL
[1]; water, water, read-out: solubility in water
  solubility: ~7 mg/mL

## CN(C/C=C/C#CC(C)(C)C)Cc1cccc2ccccc12 [Example 1, Terbinafine L-(−)-hydrogen malate (polymorph form A)]
[1]; 25°
  solubility in ethyl acetate: > 30 mg/mL
  solubility in water: ~12 mg/mL
[1]; 25°, listed as Example 3
  solubility in ethanol: > 50 mg/mL
[1]; aqueous with cosolvent or surfactant or cyclodextrin, solubility, read-out: solubility in ethane/water 2:8 v/v
  solubility: > 30 mg/mL
[1]; [6]
  solubility: > 30 mg/mL
[2]; non-occlusive conditions
  amount recovered in receptor chamber (permeation): ~41 ng
[2]; occlusive conditions
  amount recovered in receptor chamber (permeation): about 63 ng

## CN(C/C=C/C#CC(C)(C)C)Cc1cccc2ccccc12 [Example 2, Terbinafine L-(−)-hydrogen malate (polymorph form B)]
[1]; 25°
  solubility in water: 15 mg/mL

## CN(C/C=C/C#CC(C)(C)C)Cc1cccc2ccccc12 [Example 4, Terbinafine D-(+)-hydrogen malate]
[1]; 25°
  solubility in water: ~7 mg/mL

## CN(C/C=C/C#CC(C)(C)C)Cc1cccc2ccccc12 [L-(−)-hydrogen malate, terbinafine L-(−)-hydrogen malate]
[1]; 25°
  solubility in ethyl acetate: > 30 mg/mL
  solubility in water: 12 to 15 mg/mL
[3]
  coefficient of variation (CV) of AUC, inter-animal variability: 30%
[3]; [7]
  AUC: 392 ng·h/mL
  Cmax: 134 ng/mL

## CN(C/C=C/C#CC(C)(C)C)Cc1cccc2ccccc12 [Terbinafine, (E)-N-methyl-6,6-dimethyl-N-(1-naphthylmethyl)hept-2-en-4-inyl-1-amine]
[4]
  inhibition of CYP2D6: potent inhibitor

## CN(C/C=C/C#CC(C)(C)C)Cc1cccc2ccccc12 [terbinafine hydrochloride]
[5]; administered with a fat-rich meal
  increase in AUC with a fat-rich meal: 42%
[5]; [8]
  Peak drug plasma concentration (Cmax): about 1.3 μg/ml
  area under the curve over 24 hours (AUC): about 4.76 μg·hour/ml
[5]; human, in vivo
  effective half-life: about 36 hours
[5]; patients with renal impairment (creatinine clearance ≤50 ml/min) or hepatic cirrhosis
  reduction of clearance: approximately 50%
[5]; [9]
  AUC increase factor in steady state vs single dose: 2.5
  Cmax higher in steady state vs single dose: 25%
[3]; hydrochloride
  coefficient of variation (CV) of AUC, inter-animal variability: 39%
  mean AUC: 348 ng·h/mL
  mean Cmax: 146 ng/mL
